Measured values taken from PubChem BioAssay (NCI).
Where “and” joins values, the source holds several entries; their conditions need not be identical. Equal entries are not always repeated.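 The compound was tested at five concentrations on cells cultured in 96-well plates, with a 48-hour exposure period. At the GI50, growth is halved. The concentration for full growth arrest is given as TGI.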

How the values were obtained:
Assay in all cases: growth of human tumour cells (NCI), 48 h
A549 NSCLC = test system: A549 NSCLC
DU-145 prostate = test system: DU-145 prostate
HCT-15 colon = test system: HCT-15 colon
HT29 colon = test system: HT29 colon
KM12 colon = test system: KM12 colon
NCI/ADR-RES ovarian = test system: NCI/ADR-RES ovarian
OVCAR-5 ovarian = test system: OVCAR-5 ovarian
RXF 393 renal = test system: RXF 393 renal
SF-268 CNS = test system: SF-268 CNS
T-47D breast = test system: T-47D breast

Cc1ccc(C(=O)c2sc3nc4c(cc3c2N)CCCC4)c(C)c1
GI50 (A549 NSCLC): 0.377 µM | TGI (A549 NSCLC): > 100 µM | GI50 (DU-145 prostate): 0.838 µM | TGI (DU-145 prostate): > 100 µM | GI50 (HCT-15 colon): 0.159 µM | TGI (HCT-15 colon): > 100 µM | GI50 (HT29 colon): 0.443 µM | TGI (HT29 colon): > 35 µM | GI50 (KM12 colon): 0.251 µM | TGI (KM12 colon): > 100 µM | GI50 (NCI/ADR-RES ovarian): 0.239 µM | TGI (NCI/ADR-RES ovarian): > 100 µM | GI50 (OVCAR-5 ovarian): 2.49 µM | TGI (OVCAR-5 ovarian): > 100 µM | GI50 (RXF 393 renal): 0.328 µM | TGI (RXF 393 renal): 2.31 µM | GI50 (SF-268 CNS): 0.787 µM | TGI (SF-268 CNS): > 100 µM | GI50 (T-47D breast): 0.45 µM | TGI (T-47D breast): > 69.8 µM

O=[P+](O)c1ccccn1
TGI (A549 NSCLC): > 100 µM | TGI (HCT-15 colon): > 100 µM | TGI (HT29 colon): > 100 µM | TGI (KM12 colon): > 100 µM | TGI (OVCAR-5 ovarian): > 100 µM | TGI (RXF 393 renal): > 100 µM | TGI (SF-268 CNS): > 100 µM

Cc1cccc(C)c1NC(=O)CCc1nnc2s/c(=C\c3ccc(N(C)C)cc3)c(=O)n12
TGI (A549 NSCLC): > 100 µM | TGI (HCT-15 colon): > 100 µM | TGI (HT29 colon): > 100 µM | TGI (KM12 colon): > 100 µM | TGI (OVCAR-5 ovarian): > 100 µM | TGI (RXF 393 renal): > 100 µM | TGI (SF-268 CNS): > 100 µM

Cc1cc(N(CCC#N)CCC#N)ccc1N=Nc1cc(Cl)ccc1Cl
TGI (A549 NSCLC): 38.5 µM | TGI (HCT-15 colon): 6.58 µM | TGI (HT29 colon): 13.1 µM | TGI (KM12 colon): 30 µM | TGI (OVCAR-5 ovarian): 27.4 µM | TGI (RXF 393 renal): 23 µM | TGI (SF-268 CNS): 29.9 µM

C/C(=N\NC(N)=S)c1ccc(C)c(C)c1
TGI (A549 NSCLC): > 100 µM | TGI (HCT-15 colon): > 100 µM | TGI (HT29 colon): 98.9 µM | TGI (KM12 colon): > 100 µM | TGI (OVCAR-5 ovarian): > 100 µM | TGI (RXF 393 renal): 86.4 µM | TGI (SF-268 CNS): > 100 µM

O=c1c2cc(Br)cc(Br)c2nc(CCCl)n1-c1ccc(O)c([N+](=O)[O-])c1
TGI (A549 NSCLC): 31.7 µM | TGI (HCT-15 colon): 38.1 µM | TGI (HT29 colon): 41.1 µM | TGI (KM12 colon): 33.7 µM | TGI (OVCAR-5 ovarian): 33.1 µM | TGI (SF-268 CNS): 37.9 µM

C=C1c2ccccc2C(=O)c2c1c1c(C(=O)OC)c(OC(=O)OCc3ccc([N+](=O)[O-])cc3)ccc1n2Cc1ccccc1
GI50 (A549 NSCLC): 16.5 µM | TGI (A549 NSCLC): > 100 µM | GI50 (DU-145 prostate): 3.62 µM | TGI (DU-145 prostate): 33.5 µM | GI50 (HCT-15 colon): 34.3 µM | TGI (HCT-15 colon): > 100 µM | GI50 (KM12 colon): 12.7 µM | TGI (KM12 colon): 61.4 µM | GI50 (NCI/ADR-RES ovarian): 3.46 µM | TGI (NCI/ADR-RES ovarian): 15 µM | GI50 (OVCAR-5 ovarian): 17.7 µM | TGI (OVCAR-5 ovarian): 49.5 µM | GI50 (RXF 393 renal): 3.1 µM | TGI (RXF 393 renal): > 100 µM | GI50 (SF-268 CNS): 46.4 µM | TGI (SF-268 CNS): > 100 µM

CCOC(=O)C1C=C2O[C@@H]3OC4(CCCCC4)O[C@@H]3C2C2C(=O)CCC(=O)[C@@]12C(=O)OC (stereo not given in full)
TGI (A549 NSCLC): > 100 µM | TGI (HCT-15 colon): > 100 µM | TGI (KM12 colon): > 100 µM | TGI (OVCAR-5 ovarian): > 100 µM | TGI (SF-268 CNS): > 100 µM

O=C(Cc1nc2sc3c(c2c(=O)[nH]1)CCCC3)Nc1ccccc1
TGI (A549 NSCLC): > 100 µM | TGI (HCT-15 colon): > 100 µM | TGI (HT29 colon): > 100 µM | TGI (KM12 colon): > 100 µM | TGI (OVCAR-5 ovarian): > 100 µM | TGI (RXF 393 renal): 69.9 µM | TGI (SF-268 CNS): > 100 µM

C[C@]12CC[C@@H]3c4ccc(O)cc4CC[C@H]3[C@@H]1CC[C@@H]2NS(=O)(=O)c1ccc(Br)cc1
GI50 (A549 NSCLC): 2.89 µM | TGI (A549 NSCLC): 11.1 µM | GI50 (DU-145 prostate): 3.91 µM | TGI (DU-145 prostate): 12.7 µM | GI50 (HT29 colon): 2.31 µM | TGI (HT29 colon): 4.63 µM | GI50 (KM12 colon): 1.97 µM | TGI (KM12 colon): 3.89 µM | GI50 (NCI/ADR-RES ovarian): 2.81 µM | TGI (NCI/ADR-RES ovarian): 8.79 µM | GI50 (OVCAR-5 ovarian): 2.31 µM | TGI (OVCAR-5 ovarian): 6.03 µM | GI50 (RXF 393 renal): 2.43 µM | TGI (RXF 393 renal): 4.99 µM | GI50 (SF-268 CNS): 3.43 µM | TGI (SF-268 CNS): 13.4 µM | GI50 (T-47D breast): 3.35 µM | TGI (T-47D breast): 10.3 µM

C[C@H]1C/C=C/[C@H]2[C@@H]3O[C@]3(C)[C@@H](C)[C@H]3[C@H](Cc4ccccc4)NC(=O)[C@]32OC(=O)O/C=C/[C@@](C)(O)C1=O
GI50 (A549 NSCLC): 0.0462 µM | TGI (HCT-15 colon): 56.6 µM | GI50 (HT29 colon): 0.0465 µM and 0.025 µM | TGI (HT29 colon): 99.2 µM and 125 µM and > 250 µM | GI50 (KM12 colon): 11.7 µM and 29.1 µM | TGI (KM12 colon): 125 µM and > 250 µM | GI50 (NCI/ADR-RES ovarian): 34 µM and 33.3 µM | TGI (NCI/ADR-RES ovarian): > 81.9 µM and 125 µM and 160 µM | TGI (OVCAR-5 ovarian): > 95.4 µM | GI50 (RXF 393 renal): 0.0125 µM | GI50 (SF-268 CNS): 0.0125 µM and 0.025 µM

CCc1cccc(C(C)C)c1NC(=O)CCl
TGI (A549 NSCLC): > 100 µM | TGI (HCT-15 colon): > 100 µM | TGI (HT29 colon): > 100 µM | TGI (KM12 colon): > 100 µM | TGI (SF-268 CNS): > 100 µM

CCCCC(C)/C=C/C(=O)C1=C(O)/C(=C/C(=O)O)OC1=O (stereo not given)
TGI (A549 NSCLC): > 100 µM | TGI (HCT-15 colon): > 100 µM | TGI (HT29 colon): > 100 µM | TGI (KM12 colon): > 100 µM | TGI (OVCAR-5 ovarian): > 100 µM

C/C(=N\NC(=O)C[N+](C)(C)C)c1sc(-c2cccnc2)nc1C
TGI (A549 NSCLC): > 100 µM | TGI (HT29 colon): > 100 µM | TGI (KM12 colon): > 100 µM | TGI (OVCAR-5 ovarian): > 100 µM | TGI (RXF 393 renal): > 100 µM | TGI (SF-268 CNS): > 100 µM

NCCCCCNc1noc(Cc2c[nH]c3cc(Br)ccc23)n1
GI50 (A549 NSCLC): 3.88 µM | TGI (A549 NSCLC): 38.8 µM | GI50 (DU-145 prostate): 3.11 µM | TGI (DU-145 prostate): 9.01 µM | GI50 (HCT-15 colon): 0.834 µM | TGI (HCT-15 colon): 17.9 µM | GI50 (HT29 colon): 1.08 µM | TGI (HT29 colon): 10.3 µM | GI50 (KM12 colon): 1.24 µM | TGI (KM12 colon): 14.7 µM | GI50 (OVCAR-5 ovarian): 5.29 µM | TGI (OVCAR-5 ovarian): 24.6 µM | GI50 (RXF 393 renal): 1.54 µM | TGI (RXF 393 renal): 5.17 µM | GI50 (SF-268 CNS): 8.13 µM | TGI (SF-268 CNS): 29.1 µM | GI50 (T-47D breast): 5.15 µM | TGI (T-47D breast): 30.1 µM

Cc1coc2c1C(=O)C(=O)c1ccccc1-2
TGI (A549 NSCLC): 4.07 µM | TGI (HCT-15 colon): 3.42 µM | TGI (HT29 colon): 3.53 µM | TGI (KM12 colon): 3.49 µM | TGI (OVCAR-5 ovarian): 3.55 µM | TGI (RXF 393 renal): 3.12 µM

CC(=O)Oc1ccc2c(c1)[C@@]1(C)CCCC(C)(C)[C@@H]1CC2
GI50 (A549 NSCLC): 24.7 µM | TGI (A549 NSCLC): 64.8 µM | GI50 (HCT-15 colon): 19.5 µM | TGI (HCT-15 colon): 37.3 µM | GI50 (HT29 colon): 31.7 µM | TGI (HT29 colon): > 100 µM | GI50 (KM12 colon): 19.2 µM | TGI (KM12 colon): 45 µM | GI50 (NCI/ADR-RES ovarian): 26 µM | TGI (NCI/ADR-RES ovarian): 49.9 µM | GI50 (OVCAR-5 ovarian): 22.3 µM | TGI (OVCAR-5 ovarian): 40.5 µM | GI50 (RXF 393 renal): 41.2 µM | TGI (RXF 393 renal): 86.3 µM | GI50 (SF-268 CNS): 20.9 µM | TGI (SF-268 CNS): 47.9 µM | GI50 (T-47D breast): 37.5 µM | TGI (T-47D breast): > 100 µM

C[N+](C)(C)CC1CCC(C[N+](C)(C)C)C1=O (stereo not given)
TGI (A549 NSCLC): 45.8 µM | TGI (DU-145 prostate): 30.5 µM | TGI (HCT-15 colon): 4.18 µM | TGI (HT29 colon): 3.4 µM | TGI (KM12 colon): 16.3 µM | TGI (OVCAR-5 ovarian): 14.4 µM | TGI (RXF 393 renal): 3.71 µM | GI50 (SF-268 CNS): 7.26 µM | TGI (SF-268 CNS): 21.2 µM | TGI (T-47D breast): 8.28 µM

COC(=O)CCC(=O)N1C/C(=C\c2ccccc2)C(=O)/C(=C/c2ccccc2)C1
TGI (A549 NSCLC): 12.3 µM | TGI (HCT-15 colon): 2.43 µM | TGI (HT29 colon): 4.09 µM | TGI (KM12 colon): 2.84 µM | TGI (OVCAR-5 ovarian): 6.24 µM | TGI (RXF 393 renal): 3.74 µM | TGI (SF-268 CNS): 5.89 µM

N#Cc1ccc(/C=C(/C(=O)c2ccccc2)c2ccccc2)cc1
TGI (A549 NSCLC): 44.2 µM | TGI (HCT-15 colon): 30.4 µM | TGI (HT29 colon): 22.1 µM | TGI (KM12 colon): 10.1 µM | TGI (OVCAR-5 ovarian): 35.4 µM | TGI (RXF 393 renal): 39.9 µM | TGI (SF-268 CNS): 41.1 µM

S=c1o[nH]c(-c2ccccc2)c1C=Nc1ccccc1
TGI (A549 NSCLC): > 100 µM | TGI (HCT-15 colon): > 100 µM | TGI (HT29 colon): > 100 µM | TGI (KM12 colon): > 100 µM | TGI (OVCAR-5 ovarian): > 100 µM | TGI (RXF 393 renal): > 100 µM | TGI (SF-268 CNS): > 100 µM
